In ChEMBL document CHEMBL1157873, “Synthesis and biological activity of Delta-5,6-norcantharimides: importance of the 5,6-bridge” (Eur J Med Chem, 2010):

Tests used:
[1] = Cytotoxicity against human BE(2)-C cells at 100 uM after 72 hrs by MTT assay; format: functional
MCF7 [2] = assay: Cytotoxicity against human MCF7 cells at 100 uM after 72 hrs by MTT assay; format: functional; settings: MCF7, 72 h
A2780 [3] = assay: Cytotoxicity against human A2780 cells at 100 uM after 72 hrs by MTT assay; format: functional; settings: A2780, 72 h
A-431 [4] = assay: Cytotoxicity against human A431 cells at 100 uM after 72 hrs by MTT assay; format: functional; settings: A-431, 72 h
HT-29 [5] = assay: Cytotoxicity against human HT-29 cells at 100 uM after 72 hrs by MTT assay; format: functional; settings: HT-29, 72 h
[6] = Cytotoxicity against human SJ-G2 cells at 100 uM after 72 hrs by MTT assay; format: functional; settings: SJ-G2, 72 h
DU-145 [7] = assay: Cytotoxicity against human DU145 cells at 100 uM after 72 hrs by MTT assay; format: functional; settings: DU-145, 72 h
NCI-H460 [8] = assay: Cytotoxicity against human H460 cells at 100 uM after 72 hrs by MTT assay; format: functional; settings: NCI-H460, 72 h
SW480 [9] = assay: Cytotoxicity against human SW480 cells at 100 uM after 72 hrs by MTT assay; format: functional; settings: SW480, 72 h
[10] = Solubility of the compound; format: physicochemical
[11] = Inhibition of rabbit skeletal muscle protein phosphatase 1 assessed as free phosphate ion release after 60 mins by malachite green method; design: species or system Oryctolagus cuniculus
[12] = Inhibition of human red blood cells protein phosphatase 2A assessed as free phosphate ion release after 60 mins by malachite green method
[13] = Cytotoxicity against human BE(2)-C cells after 72 hrs by MTT assay; format: functional
A-431 [14] = assay: Cytotoxicity against human A431 cells after 72 hrs by MTT assay; format: functional; settings: A-431, 72 h
A2780 [15] = assay: Cytotoxicity against human A2780 cells after 72 hrs by MTT assay; format: functional; settings: A2780, 72 h
HT-29 [16] = assay: Cytotoxicity against human HT-29 cells after 72 hrs by MTT assay; format: functional; settings: HT-29, 72 h
DU-145 [17] = assay: Cytotoxicity against human DU145 cells after 72 hrs by MTT assay; format: functional; settings: DU-145, 72 h
[18] = Cytotoxicity against human SJ-G2 cells after 72 hrs by MTT assay; format: functional; settings: SJ-G2, 72 h
SW480 [19] = assay: Cytotoxicity against human SW480 cells after 72 hrs by MTT assay; format: functional; settings: SW480, 72 h
NCI-H460 [20] = assay: Cytotoxicity against human H460 cells after 72 hrs by MTT assay; format: functional; settings: NCI-H460, 72 h
MCF7 [21] = assay: Cytotoxicity against human MCF7 cells after 72 hrs by MTT assay; format: functional; settings: MCF7, 72 h

| SMILES | inhibition at 100 µM [1] | inhibition at 100 µM (MCF7 [2]) | inhibition at 100 µM (A2780 [3]) | inhibition at 100 µM (A-431 [4]) | inhibition at 100 µM (HT-29 [5]) | inhibition at 100 µM [6] | inhibition at 100 µM (DU-145 [7]) | inhibition at 100 µM (NCI-H460 [8]) | inhibition at 100 µM (SW480 [9]) | further results |
| --- | --- | --- | --- | --- | --- | --- | --- | --- | --- | --- |
| CCOC(=O)C[C@@H](C(=O)OCC)N1C(=O)[C@H]2COC[C@H]2C1=O | < 10% | 16% | 15% | < 10% | 16% | < 10% | < 10% | < 10% | < 10% |  |
| CN(C)CCNC(=O)[C@@H]1CNC[C@@H]1C(=O)O |  |  |  |  |  |  |  |  |  | solubility [10]: Insoluble |
| CCC(CO)N1C(=O)[C@H]2COC[C@H]2C1=O (stereo partly specified) | < 10% | < 10% | 13% | < 10% | < 10% | < 10% | < 10% | < 10% | < 10% |  |
| O=C(O)C[C@@H](C(=O)O)N1C(=O)[C@H]2COC[C@H]2C1=O | < 10% | 13% | 15% | < 10% | 14% | < 10% | < 10% | < 10% | < 10% |  |
| CC(CO)N1C(=O)[C@H]2CN(Cc3ccccc3)C[C@H]2C1=O (stereo partly specified) | 10% | 22% | 21% | < 10% | 15% | 18% | 10% | 14% | 12% |  |
| NCCCC[C@@H](C(=O)O)N1C(=O)[C@H]2COC[C@H]2C1=O | 32% | 37% | 31% | 35% | 30% | 23% | 17% | 27% | 30% |  |
| CCC(CO)N1C(=O)[C@H]2CN(Cc3ccccc3)C[C@H]2C1=O (stereo partly specified) | < 10% | < 10% | 15% | < 10% | 14% | < 10% | < 10% | < 10% | 15% |  |
| O=C1[C@H]2CNC[C@H]2C(=O)N1CCN1CCOCC1 | < 10% | 11% | < 10% | 10% | < 10% | < 10% | < 10% | < 10% | < 10% |  |
| NCCC[C@@H](C(=O)O)N1C(=O)[C@H]2COC[C@H]2C1=O | < 10% | < 10% | < 10% | 10% | < 10% | 32% | < 10% | < 10% | < 10% |  |
| O=C1OC(=O)[C@@H]2CSC[C@H]12 |  |  |  |  |  |  |  |  |  | IC50 [11]: > 100 µM; solubility [10]: Insoluble; IC50 [12]: > 100 µM |
| CCOC(=O)CC[C@@H](C(=O)OCC)N1C(=O)[C@H]2COC[C@H]2C1=O | < 10% | 28% | 29% | 13% | 30% | < 10% | 20% | 13% | 34% |  |
| O=C1OC(=O)C2C3CCC(O3)C12 (stereo unspecified) |  |  |  |  |  |  |  |  |  | GI50 [13]: 43 µM; IC50 [11]: 7.7 µM; GI50 (A-431 [14]): 31 µM; GI50 (A2780 [15]): 38 µM; GI50 (HT-29 [16]): 57 µM; GI50 (DU-145 [17]): 28 µM; GI50 [18]: 23 µM; GI50 (SW480 [19]): 44 µM; GI50 (NCI-H460 [20]): 45 µM; GI50 (MCF7 [21]): 68 µM; IC50 [12]: 2.7 µM |
| NCCCC[C@@H](C(=O)O)N1C(=O)[C@H]2CSC[C@H]2C1=O | 22% | 30% | 16% | 19% | 22% | 10% | < 10% | 19% | < 10% |  |
| O=C1[C@H]2CNC[C@H]2C(=O)N1N1CCOCC1 |  |  |  |  |  |  |  |  |  | solubility [10]: Insoluble |
